Marks after values point to notes of the source that are not given here.
Tests used:
[1] = tested on: ovariectomized ICR female mice; test: Bone mineral density (BMD) of the femur in ovariectomized mice; format: in vivo; details: right femur, 32nd day after ovariectomy; GKM3/GKS6 205 mg/kg oral gavage once/day for 28 days; Alen 2.5 mg/kg 3 times a week for 28 days; n = 6
Experimental: In this embodiment, GKM3 and GKS6 powders were each prepared in a 0.5% (w/v) carboxymethylcellulose (CMC) solution as a suspension with a concentration of 205 mg/mL The vehicle group used 0.5% (w/v) CMC solution.
Because bone metabolism is closely related to estrogen, mice with bilateral ovariectomy were used as a model for studying osteoporosis in postmenopausal animals. After the recovery period of 1 to 2 weeks after the bilateral ovariectomy, mice were randomly assigned to different treatment groups.
In this embodiment, 8-week-old ICR female mice were purchased from BioLASCO Taiwan Co., Ltd., and ovariectomy (OVX) was performed when they were 9 weeks old. […]
Computerized tomography images of the right distal femur of ICR mice were obtained by a micro-computed tomography (micro-CT) scanner (SkyScan 1076, Kontizh, Belgium) with a resolution of 18 μm and were analyzed by a software to obtain the trabecular bone volume density (i.e., bone volume/tissue volume, BV/TV), the trabecular thickness (Tb.Th), the trabecular number (Tb.N), and the trabecular spacing (Tb.Sp). The analyzed position was selected to include the area of 100 pieces under the growth plate but not the cortical bone. […]
The bone density (mass/volume) was detected by the micro-CT. […]
The obtained data in the experiments were analyzed with one-way analysis of variance (one-way ANOVA) and the Duncan's multiple range test. […]

[2] = tested on: ovariectomized ICR female mice; test: Micro-CT bone tissue analysis of the right distal femur in ovariectomized mice (osteoporosis model); format: in vivo; details: 32nd day after ovariectomy, GKM3/GKS6 205 mg/kg oral gavage once/day for 28 days, Alen 2.5 mg/kg 3 times a week for 28 days, n = 6

NCCCC(O)(P(=O)(O)O)P(=O)(O)O [Alen, alendronate]
Femur BMD [1]: 0.60 ± 0.02* g/cm^3 | Femur Tb.N [2]: 3.3 ± 0.1 No./mm | Femur Tb.Sp [2]: 232.9 ± 25.9 μm | Femur Tb.Th [2]: 109.9 ± 3.9 μm
